Measured values as given in ChEMBL document CHEMBL1833922, “A compound isolated from Schisandra chinensis induces apoptosis” (2011).
Activity calls are given as the source filed them. No cut-off for these calls is given here.

Assays:
HCT-116 [1] = assay: Induction of apoptosis in human HCT116 cells assessed as accumulation of cleaved caspase-7 at 10 uM after 48 hrs by Western blot analysis; format: functional, cell-based
HCT-116 [2] = assay: Induction of apoptosis in human HCT116 cells assessed as increase in cleaved PARP level at 10 uM by Western blot analysis; format: functional, cell-based; conditions: TDE = time-dependent effect
HCT-116 [3] = assay: Anticlonogenic activity against human HCT116 cells at 2 uM after 7 days using crystal violet staining; format: functional
HCT-116 [4] = assay: Antiproliferative activity against human HCT116 cells assessed as cell growth inhibition at 10 to 40 uM by WST-8 assay; format: functional, cell-based; conditions: TDE = time-dependent effect
HCT-116 [5] = assay: Antiproliferative activity against human HCT116 cells assessed as cell growth inhibition after 12 to 48 hrs by WST-8 assay; format: functional, cell-based
HCT-116 [6] = assay: Induction of apoptosis in human HCT116 cells assessed as shrunken nuclei at 10 uM after 48 hrs by fluorescence microscopy method; format: functional, cell-based
HCT-116 [7] = assay: Induction of apoptosis in human HCT116 cells assessed as fragmented nuclei at 10 uM after 48 hrs by fluorescence microscopy method; format: functional, cell-based
HCT-116 [8] = assay: Induction of apoptosis in human HCT116 cells assessed as condensed chromatin at 10 uM after 48 hrs by fluorescence microscopy method; format: functional, cell-based

Structure (SMILES) | Activity (HCT-116 [1]) | Activity (HCT-116 [2]) | Activity (HCT-116 [3]) [%] | growth inhibition (GI) (HCT-116 [4]) | growth inhibition (GI) (HCT-116 [5]) | Activity (HCT-116 [6]) | Activity (HCT-116 [7]) | Activity (HCT-116 [8])
COc1cc2c(c(OC)c1OC)-c1c(cc3c(c1OC)OCO3)C[C@H](C)[C@](C)(O)C2 | Active | – | – | – | – | – | – | –
COc1cc2c(c(OC)c1OC)-c1c(cc3c(c1OC)OCO3)C[C@@H](C)[C@](C)(O)C2 | Active | tde | 50 | tde | Dose-dependent effect | Active | Active | Active
